Measurements from patent US20130337564A1, “Treatment of Pluripotent Cells” (Janssen Biotech, Inc., priority 2012, published 2013).

Legend:
Type in all cases: cell-based
[1] = tested on: cells expressing pluripotency markers derived from human embryonic stem cells; assay: MTS viability (toxicity) assay of cells expressing pluripotency markers; parameters: Raw data (duplicate), first replicate / Average: unit not given here; conditions: for viability at 10 µM: Homo sapiens, Embryonic stem cell; for viability at 10 µM / % Control: viability of cells expressing pluripotency markers, relative to control; for Average of raw data (duplicate), optical density at 490 nm: MTS on day 4
Procedure, shortened: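 Cells expressing pluripotency markers, derived from human embryonic stem cells, were plated at 20,000 cells per well in 96-well clear-bottom plates and cultured overnight. Test compounds were applied in assay medium on days 1 and 2, and compound-free medium on days 3 and 4. On day 4, MTS was added and optical density at 490 nm was read in duplicate.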

[2] = tested on: human embryonic stem cells (H9 line); assay: High content screening assay: cell number (proliferative response); conditions: for fold induction at 10 µM: Homo sapiens, Embryonic stem cell, 10 μM test compound with 100 ng/ml activin A on days 1-2, H9, total cell number by IN Cell Analyzer, strong and moderate hits, read-out: Proliferative Response, Fold over Wnt 3a/AA control; for Proliferative Response Fold over Wnt 3a/AA control: normalised to Wnt 3a/AA control
Procedure, shortened: (§1)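 H9 hESCs on MATRIGEL treated days 1-2 with 10 μM compound in DMEM:F12, 0.5% FCS, 100 ng/ml activin A; days 3-4 with 2% FCS plus activin A without compound. Fixed cells immunostained for Sox17 or HNF-3beta with Draq5 nuclear counterstain. Cell number and staining intensity quantified by high-content imaging, 12 fields/well.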

[3] = tested on: Sox17 expression in human embryonic stem cells (H9 line); assay: High content screening assay: Sox17 protein expression (differentiation); conditions: for fold induction at 10 µM: Homo sapiens, Embryonic stem cell, read-out: SOX17 Expression, Fold over Wnt 3a/AA control; for SOX-17 Expression Fold over Wnt 3a/AA control: total intensity normalised to Wnt 3a/AA control
Procedure, shortened: as §1

[4] = tested on: HNF-3beta expression in human embryonic stem cells (H9 line); assay: High content screening assay: HNF-3beta protein expression (differentiation); conditions: for fold induction at 10 µM: Homo sapiens, Embryonic stem cell, read-out: HNF3β Expression, Fold over Wnt 3a/AA control; for HNF-3b Expression Fold over Wnt 3a/AA control: total intensity normalised to Wnt 3a/AA control
Procedure, shortened: as §1

[5] = MTS viability assay raw reading, replicate 1
[6] = MTS viability assay raw reading, replicate 2
[7] = average of duplicate MTS raw readings
[8] = cell number in the wells analysed for HNF-3b expression
[9] = cell number in the wells analysed for SOX-17 expression
[10] = 10 μM test compound with 100 ng/ml activin A on days 1-2, H9, total intensity by IN Cell Analyzer, strong and moderate hits

Compound: COc1ccccc1C1=C(c2cn(-c3cccnc3)c3ccccc23)C(=O)NC1=O [Compound 216, 3-[2-(Methyloxy)phenyl]-4-(1-pyridin-3-yl-1H-indol-3-yl)-1H-pyrrole-2,5-dione]
- viability at 10 µM [1]: 92.2%
- Raw data (duplicate), first replicate [1, 5]: 0.768
- Raw data (duplicate), second replicate [1, 6]: 0.724
- Average [1, 7]: 0.746
- Proliferative Response Total cells [2, 8]: 8479
- Proliferative Response Total cells [2, 9]: 5991
- SOX-17 Expression Total Intensity [3]: 252690000
- HNF-3b Expression Total Intensity [4]: 306520000

Compound: Cn1cc(C2=C(c3nn(CCCn4ccnn4)c4ccccc34)C(=O)NC2=O)c2cc(Cl)ccc21 [Compound 232, 3-(5-Chloro-1-methyl-1H-indol-3-yl)-4-{1-[3-(1H-1,2,3-triazol-1-yl)propyl]-1H-indazol-3-yl}-1H-pyrrole-2,5-dione]
- viability at 10 µM [1]: 87.3%
- Raw data (duplicate), first replicate [1, 5]: 0.720
- Raw data (duplicate), second replicate [1, 6]: 0.697
- Average [1, 7]: 0.709
- fold induction at 10 µM [2]: 1.09
- Proliferative Response Total cells [2, 8]: 14950
- Proliferative Response Total cells [2, 9]: 16652
- fold induction at 10 µM [3, 10]: 1.07
- SOX-17 Expression Total Intensity [3]: 1045395000
- fold induction at 10 µM [4, 10]: 0.771
- HNF-3b Expression Total Intensity [4]: 854325000

Compound: O=C1NC(=O)C2=C1c1cn(c3ccccc13)CCOCCOCCOCCn1cc2c2ccccc21 [Compound 163, 6,7,9,10,12,13,15,16-Octahydro-23H-5,26:17,22-di(metheno)dibenzo[k,q]pyrrolo[3,4-n][1,4,7,10,19]trioxadiazacyclohenicosine-23,25(24H)-dione]
- Raw data (duplicate), first replicate [1, 5]: 0.678
- Raw data (duplicate), second replicate [1, 6]: 0.661
- Average [1, 7]: 0.670
- % Control [1]: 80.8%
- Proliferative Response Total cells [2, 8]: 5485
- Proliferative Response Fold over Wnt 3a/AA control [2, 8]: 4.327 fold
- Proliferative Response Total cells [2, 9]: 1313
- Proliferative Response Fold over Wnt 3a/AA control [2, 9]: 0.7864 fold
- SOX17 Expression, Fold over Wnt 3a/AA control [3, 10]: 0.9266 Fold over Wnt 3a/AA control
- SOX-17 Expression Total Intensity [3]: 28506437
- SOX-17 Expression Fold over Wnt 3a/AA control [3]: 0.9266 fold
- HNF3β Expression, Fold over Wnt 3a/AA control [4, 10]: 3.1115 Fold over Wnt 3a/AA control
- HNF-3b Expression Total Intensity [4]: 85245671
- HNF-3b Expression Fold over Wnt 3a/AA control [4]: 3.1115 fold

Compound: O=C1NC(=O)C(c2nn(CCO)c3ccccc23)=C1c1cn(-c2cncnc2)c2ccccc12 [Compound 226, 3-[1-(2-Hydroxyethyl)-1H-indazol-3-yl]-4-(1-pyrimidin-5-yl-1H-indol-3-yl)-1H-pyrrole-2,5-dione]
- viability at 10 µM [1]: 83.1%
- Raw data (duplicate), first replicate [1, 5]: 0.683
- Raw data (duplicate), second replicate [1, 6]: 0.688
- Average [1, 7]: 0.686
- Average of raw data (duplicate), optical density at 490 nm ([1]; cmpd conc 2.5 μM): 0.7474
- Average of raw data (duplicate), optical density at 490 nm ([1]; cmpd conc 5 μM): 0.7506
- Average of raw data (duplicate), optical density at 490 nm ([1]; cmpd conc 10 μM): 0.6945
- fold induction at 10 µM [2]: 0.634
- Proliferative Response Total cells [2, 8]: 7650
- Proliferative Response Total cells [2, 9]: 9716
- fold induction at 10 µM [3, 10]: 0.589
- SOX-17 Expression Total Intensity [3]: 572520000
- HNF-3b Expression Total Intensity [4]: 329425000

Compound: O=C1NC(=O)C(c2cn(CCCO)c3ncccc23)=C1c1ccn(CCCO)n1 [Compound 185, 3-[1-(3-Hydroxypropyl)-1H-pyrazol-3-yl]-4-[1-(3-hydroxypropyl)-1H-pyrrolo[2,3-b]pyridin-3-yl]-1H-pyrrole-2,5-dione]
- viability at 10 µM [1]: 104%
- Raw data (duplicate), first replicate [1, 5]: 0.830
- Raw data (duplicate), second replicate [1, 6]: 0.807
- Average [1, 7]: 0.818
- fold induction at 10 µM [2]: 0.944
- fold induction at 10 µM [3, 10]: 0.889
- fold induction at 10 µM [4, 10]: 0.865

Compound: COC(=O)c1cncc(-n2cc(C3=C(c4nn(CCO)c5ccccc45)C(=O)NC3=O)c3cc(Cl)ccc32)c1 [Compound 150, Methyl 5-(5-chloro-3-{4-[1-(2-hydroxyethyl)-1H-indazol-3-yl]-2,5-dioxo-2,5-dihydro-1H-pyrrol-3-yl}-1H-indol-1-yl)pyridine-3-carboxylate]
- viability at 10 µM [1]: 81.7%
- Average ([1]; MTS viability readout, average of duplicate raw data): 0.673
- Raw data (duplicate), first replicate ([1]; MTS viability readout, raw value of replicate 1): 0.668
- Raw data (duplicate), second replicate ([1]; MTS viability readout, raw value of replicate 2): 0.678
- Average of raw data (duplicate), optical density at 490 nm ([1]; cmpd conc 2.5 μM): 0.7630
- Average of raw data (duplicate), optical density at 490 nm ([1]; cmpd conc 5 μM): 0.6972
- Average of raw data (duplicate), optical density at 490 nm ([1]; cmpd conc 10 μM): 0.2259
- Proliferative Response Total cells [2, 8]: 6992
- Proliferative Response Total cells [2, 9]: 7958
- SOX-17 Expression Total Intensity [3]: 351070000
- HNF-3b Expression Total Intensity [4]: 288075000

Compound: O=C1NC(=O)C2=C1c1cn(c3ccccc13)CCOCCOCCn1cc2c2ccccc21 [Compound 164, 6,7,9,10,12,13-Hexahydro-20H-5,23:14,19-di(metheno)dibenzo[h,n]pyrrolo[3,4-k][1,4,7,16]dioxadiazacyclooctadecine-20,22(21H)-dione]
- Raw data (duplicate), first replicate [1, 5]: 0.603
- Raw data (duplicate), second replicate [1, 6]: 0.584
- Average [1, 7]: 0.593
- % Control [1]: 69.4%
- Proliferative Response Total cells [2, 8]: 67
- Proliferative Response Fold over Wnt 3a/AA control [2, 8]: 0.05259 fold
- Proliferative Response Total cells [2, 9]: 12
- Proliferative Response Fold over Wnt 3a/AA control [2, 9]: 0.007385 fold
- SOX-17 Expression Total Intensity [3]: 85949
- SOX-17 Expression Fold over Wnt 3a/AA control [3]: 0.0028 fold
- HNF-3b Expression Total Intensity [4]: 1300640
- HNF-3b Expression Fold over Wnt 3a/AA control [4]: 0.0475 fold

Compound: Cc1c[nH]c(-c2cnc(NCCNc3ccc(C#N)cn3)nc2-c2ccc(Cl)cc2Cl)n1 [Compound 221, 6-[(2-{[4-(2,4-Dichlorophenyl)-5-(4-methyl-1H-imidazol-2-yl)pyrimidin-2-yl]amino}ethyl)amino]pyridine-3-carbonitrile]
- viability at 10 µM [1]: 98.8%
- Average of raw data (duplicate), optical density at 490 nm ([1]; cmpd conc 2.5 μM): 0.9324
- Average of raw data (duplicate), optical density at 490 nm ([1]; cmpd conc 5 μM): 0.7191
- Average of raw data (duplicate), optical density at 490 nm ([1]; cmpd conc 10 μM): 0.6128
- fold induction at 10 µM [2]: 1.38
- Proliferative Response Total cells [2, 8]: 21203
- Proliferative Response Total cells [2, 9]: 21070
- fold induction at 10 µM [3, 10]: 1.12
- SOX-17 Expression Total Intensity [3]: 1089750000
- fold induction at 10 µM [4, 10]: 1.16
- HNF-3b Expression Total Intensity [4]: 1281000000

Compound: O=C1NC(=O)C2=C1Nc1cccc(c1)OCCC/C=C\CCCOc1cccc2c1 [Compound 233, (11Z)-8,9,10,13,14,15-Hexahydro-2,6:17,21-di(metheno)pyrrolo[3,4-h][1,15,7]dioxazacyclotricosine-22,24(1H,23H)-dione]
- viability at 10 µM [1]: 70.9%
- Raw data (duplicate), first replicate [1, 5]: 0.608
- Raw data (duplicate), second replicate [1, 6]: 0.590
- Average [1, 7]: 0.599
- Average of raw data (duplicate), optical density at 490 nm ([1]; cmpd conc 2.5 μM): 0.4267
- Average of raw data (duplicate), optical density at 490 nm ([1]; cmpd conc 5 μM): 0.1283
- Average of raw data (duplicate), optical density at 490 nm ([1]; cmpd conc 10 μM): 0.1391
- Proliferative Response Total cells [2, 8]: 4357
- Proliferative Response Total cells [2, 9]: 6470
- SOX-17 Expression Total Intensity [3]: 327055000
- HNF-3b Expression Total Intensity [4]: 109160000
